For one data set, the system named is SNORD109A/B. Nature of the data set: SNORD109A/B steady state RNA (qRT-PCR) in GABAergic iPSC-derived neurons. The note with it: 10-point dose curve 1 nM-30 μM; 14 DIV to 20 DIV.
The next data set has as its system SNURF. Put plainly: RNA-sequencing of Angelman syndrome iPSC neurons: SNURF. In kind it is cell-based, human. Particulars: 30 μM; six days post-treatment; RNA-seq. Here is the method:
(§1) RNA was isolated using Qiagen RNAeasy Plus (74136, Qiagen, Hilden, Germany). RNA concentration was determined using Qubit Fluorometric Quantitation (Thermo Fisher Scientific) and RNA quality was assessed using a 4200 Agilent TapeStation (Agilent, Santa Clara, Calif.). RNA-sequencing libraries were generated using the Illumina TruSeq Stranded Total RNA kit (20020597, Illumina, Inc., San Diego, Calif.) according to the manufacturer's protocol. 75 base-pair paired-end sequencing was performed using a NextSeq 500 (IIlumina, San Diego, Calif.) at the Texas A&M Institute for Genome Sciences and Society Genomics core. Raw sequencing reads were processed using CASAVA. The resulting FASTQ sequences were examined using FASTQC. […]
(§2) To determine whether ASO-4.4.PS.L and ASO-6.1.PO-1.O affect the levels of RNA transcripts encoded by the PWS polycistronic transcript, RNA-sequencing was performed on AS iPS cells treated with each ASO and the steady state RNA levels of SNURF, SNRPN, the SNORD116 host-gene transcript (SNHG116), the SNORD116 snoRNAs, IPW, the SNORD115 host-gene transcript (SNHG115), the SNORD115 snoRNAs, and UBE3A-AS were quantified. UBE3A steady state RNA levels were also measured. […]

A further data set concerns UBE3A. Put plainly: RNA-sequencing of Angelman syndrome iPSC neurons: UBE3A. In kind it is cell-based, human. Particulars: 30 μM; six days post-treatment; RNA-seq. Here is the method:
as §1, §2

In another data set the test system is UBE3A-AS. Nature of the data set: RNA-sequencing of Angelman syndrome iPSC neurons: UBE3A-AS. In kind it is cell-based, human. The note with it: 30 μM; RNA-seq; relative to vehicle. Here is the method: as §1, §2

Turning to `CC[C@@]1(O)C(=O)OCc2c1cc1n(c2=O)Cc2cc3c(CN(C)C)c(O)ccc3nc2-1` [Topotecan, reference compound], the “effect on SNORD109A/B RNA levels (in words)” value in the data set on SNORD109A/B was “significant effect on SNORD116, IPW, SNORD115, and SNORD109A/B RNA levels that was dose dependent”.
As to “A^L*G^L*A^L*a*t*g*g*c*a*c*a*t*c*t*5mC^L*T^L*T^L*G^L (NNNATGGCACATCTNNNN; LNA gapmer, PS, 5-methylcytosine, chemistry not fully specified) [ASO-4.4.PS.L]”, the “Difference, SNURF RNA level relative to vehicle” value with SNURF amounted to 0.49. The “Difference, UBE3A RNA level relative to vehicle” value in the data set with UBE3A came out at 0.90. In the data set on UBE3A-AS, the “effect on UBE3A-AS RNA levels” value is reported as −6.1 fold change.
In the same order, the values of “C^O*U^O*G^O*G^O-t*g*t*c*a*a*c*a*a*g-C^O*C^O*A^O*A^o [ASO-6.1.PO-1.O]” are −0.53, 0.74 and −2.8 fold change.
For the compound “U^O*A^O*G^O*A^O*A^O*t*g*g*c*a*c*a*t*c*t*C^O*U^O*U^O*G^O*G^O [ASO-4]”, the “effect on SNORD109A/B RNA levels (in words)” value with SNORD109A/B is “significant effect on the RNA levels of IPW, SNORD115, and SNORD109A/B but not in a dose dependent manner”.

Source of the values: patent publication US11198869B2, “Angelman syndrome antisense treatment” (The Texas A&M University System, priority 2017, dated 2021).
